In patent US6451814B1, “Heterocyclic β-3 adrenergic receptor agonists” (Wyeth, priority 2000, dated 2002):
pEC50: −log10 of the molar value. Several values for one entry are separate records, joined by “and”; a condition that tells them apart may be missing. Equal entries are not always repeated.

Target: T1, human β3-adrenergic receptor (Homo sapiens, UniProt P13945)
T1 construct: Full length β3 AR clones (402 amino acids) containing the last 6 amino acids of hβ3—AR are prepared; expressed in transfected cells; host or cells: CHO cells
T1 sequence (P13945 whole entry): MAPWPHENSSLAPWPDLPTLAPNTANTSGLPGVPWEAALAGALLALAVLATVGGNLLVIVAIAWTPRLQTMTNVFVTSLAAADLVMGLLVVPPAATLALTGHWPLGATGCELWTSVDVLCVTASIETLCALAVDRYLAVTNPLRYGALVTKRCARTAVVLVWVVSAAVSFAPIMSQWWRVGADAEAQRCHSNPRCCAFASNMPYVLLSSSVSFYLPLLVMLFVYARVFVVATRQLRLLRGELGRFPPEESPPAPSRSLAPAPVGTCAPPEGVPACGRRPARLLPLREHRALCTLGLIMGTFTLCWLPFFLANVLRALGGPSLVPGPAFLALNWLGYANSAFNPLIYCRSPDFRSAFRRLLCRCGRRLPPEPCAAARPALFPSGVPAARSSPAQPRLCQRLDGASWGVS
Assay: cAMP response (SPA kit) in CHO cells transfected with human β3 adrenergic receptor
Format: cell-based
Settings: for pEC50: CHO cells expressing human β3-AR, 10^-9 M to 10^-5 M, 30 min at 37° C., cAMP by SPA, read-out: EC50(β3); for IA(β3): maximal response of compound compared to maximal response of isoproterenol at 10^-5 M, CHO cells, human β3-AR

Row | SMILES | pEC50 | IA(β3)
1 | COc1ccc2[nH]c(C(=O)N3CCC(Nc4ccc(CCNCC(O)COc5ccc(O)cc5)cc4)CC3)cc2c1 (stereo not drawn) [Example 94, [4-(4-{2-[2-Hydroxy-3-(4-hydroxy-phenoxy)-propylamino]-ethyl}-phenylamino)-piperidin-1-yl]-(5-methoxy-1H-indol-2-yl)-methanone] | 8.00 and 7.27 | 0.59 and 0.78
2 | Cc1ccc(S(=O)(=O)N2CCC(Nc3ccc(CCNC[C@H](O)COc4ccc(O)cc4)cc3)CC2)cc1 [Example 112, 4-[(2S)-2-Hydroxy-3-(2-{4-[1-(toluene-4-sulfonyl)-piperidin-4-ylamino]-phenyl}-ethylamino)-propoxy]-phenol] | 7.07 | 0.89
3 | O=C(OCc1cc(F)ccc1F)N1CCC(Nc2ccc(CCNC[C@H](O)COc3ccc(O)cc3)cc2)CC1 [Example 122, 4-(4-{2-[(2S)-2-Hydroxy-3-(4-hydroxy-phenoxy)-propylamino]-ethyl}-phenylamino)-piperidine-1-carboxylic Acid 2,5-difluoro-benzyl Ester] | 7.00 | 0.81
4 | O=C(NCc1ccc(Cl)c(Cl)c1)N1CCC(Nc2ccc(CCNC[C@H](O)COc3ccc(O)cc3)cc2)CC1 [Example 21, 4-(4-{2-[(2S)-2-Hydroxy-3-(4-hydroxy-phenoxy)-propylamino]-ethyl}-phenylamino)-piperidine-1-carboxylic Acid 3,4-dichloro-benzylamide] | 7.52 | 1
5 | O=C(O)COc1ccc(NC(=O)N2CCC(Nc3ccc(CCNC[C@H](O)COc4ccc(O)cc4)cc3)CC2)cc1 [Example 58, (4-{[4-(4-{2-[(2S)-2-Hydroxy-3-(4-hydroxy-phenoxy)-propylamino]-ethyl}-phenylamino)-piperidine-1-carbonyl]-amino}-phenoxy)-acetic Acid] | 6.49 | 1.61
6 | O=C(c1cc2cc(Br)ccc2[nH]1)N1CCC(Nc2ccc(CCNC[C@H](O)COc3ccc(O)cc3)cc2)CC1 [Example 96, (5-Bromo-1H-indol-2-yl)-[4-(4-{2-[(2S)-2-hydroxy-3-(4-hydroxy-phenoxy)-propylamino]-ethyl}-phenylamino)-piperidin-1-yl]-methanone] | 6.51 | 0.83
7 | O=C(NCc1ccc(Cl)cc1Cl)N1CCC(Nc2ccc(CCNC[C@H](O)COc3ccc(O)cc3)cc2)CC1 [Example 20, 4-(4-{2-[(2S)-2-Hydroxy-3-(4-hydroxy-phenoxy)-propylamino]-ethyl}-phenylamino)-piperidine-1-carboxylic Acid 2,4-dichloro-benzylamide] | – | 0.91
8 | O=C(CCNC(=O)N1CCC(Nc2ccc(CCNC[C@H](O)COc3ccc(O)cc3)cc2)CC1)N1CCOCC1 [Example 90, 4-(4-{2-[(2S)-2-Hydroxy-3-(4-hydroxy-phenoxy)-propylamino]-ethyl}-phenylamino)-piperidine-1-carboxylic Acid (3-morpholin-4-yl-3-oxo-propyl)-amide] | 7.11 | 0.73
9 | CCCCCCCCNC(=O)N1CCC(Nc2ccc(CCNC[C@H](O)COc3ccc(O)c(NS(C)(=O)=O)c3)cc2)CC1 [Example 66, 4-(4-{2-[(2S)-2-Hydroxy-3-(4-hydroxy-3-methanesulfonylamino-phenoxy)-propylamino]-ethyl}-phenylamino)-piperidine-1-carboxylic Acidoctylamide] | 6.70 | 0.99
10 | O=C(c1n[nH]c2ccccc12)N1CCC(Nc2ccc(CCNC[C@H](O)COc3ccc(O)cc3)cc2)CC1 [Example 102, [4-(4-{2-[(2S)-2-Hydroxy-3-(4-hydroxy-phenoxy)-propylamino]-ethyl}-phenylamino)-piperidin-1-yl]-(1H-indazol-3-yl)-methanone] | 8.05 | 0.95
11 | COc1cccc(CCNC(=O)N2CCC(Nc3ccc(CCNC[C@H](O)COc4ccc(O)cc4)cc3)CC2)c1 [Example 6, 4-(4-{2-[(2S)-2-Hydroxy-3-(4-hydroxy-phenoxy)-propylamino]-ethyl}-phenylamino)-piperidine-1-carboxylic Acid [2-(3-methoxy-phenyl)-ethyl]-amide] | 6.97 | 1.21
12 | COC(=O)[C@@H]1CCCN1C(=O)N1CCC(Nc2ccc(CCNC[C@H](O)c3ccc(O)c(NS(C)(=O)=O)c3)cc2)CC1 [Example 77, 1-[[4-[[4-[2-[[(2R)-2-Hydroxy-2-[4-hydroxy[(methylsulfonyl)amino]phenyl]ethyl]amino]ethyl]phenyl]amino]-1-piperidinyl]carbonyl]-L-proline, Methyl Ester] | 7.55 | 0.99
13 | CS(=O)(=O)Nc1cc([C@@H](O)CNCCc2ccc(NC3CCN(c4nc(-c5ccccc5)cs4)CC3)cc2)ccc1O [Example 118, (R)-N-{2-Hydroxy-5-[1-hydroxy-2-(2-{4-[1-(4-phenyl-thiazol-2-yl)-piperidin-4-ylamino]-phenyl}-ethylamino)-ethyl]-phenyl}-methanesulfonamide] | 7.66 | 0.96
14 | O=C(NCc1ccc(F)cc1)N1CCC(Nc2ccc(CCNC[C@H](O)COc3cccc(O)c3)cc2)CC1 [Example 85, 4-(4-{2-[(2S)-2-Hydroxy-3-(3-hydroxy-phenoxy)-propylamino]-ethyl}-phenylamino)-piperidine-1-carboxylic Acid 4-fluoro-benzylamide] | 8.52 | 0.82
15 | O=C(O)C1CCN(C(=O)N2CCC(Nc3ccc(CCNC[C@H](O)COc4ccc(O)cc4)cc3)CC2)CC1 [Example 62, 1-[4-(4-{2-[(2S)-2-Hydroxy-3-(4-hydroxy-phenoxy)-propylamino]-ethyl}-phenylamino)-piperidine-1-carbonyl]-piperidine-4-carboxylic acid] | 6.87 | 1.05
16 | Cc1sccc1C(=O)N1CCC(S(=O)(=O)c2ccc(CCNC[C@H](O)COc3ccc(O)cc3)cc2)CC1 [Example 107, [4-(4-{2-[(2S)-2-Hydroxy-3-(4-hydroxy-phenoxy)-propylamino]-ethyl}benenesulfonyl)-piperidin-1-yl]-(2-methyl-thiophen-3-yl)-methanone] | 7.40 | 0.92
17 | CC(C)NC(=O)N1CCC(Nc2ccc(CCNC[C@H](O)COc3ccc(O)cc3)cc2)CC1 [Example 11] | 7.05 | 1.05
18 | COc1cccc(CNC(=O)N2CCC(Nc3ccc(CCNC[C@H](O)COc4ccc(O)cc4)cc3)CC2)c1 [Example 79, 4-(4-{2-[(2S)-2-Hydroxy-3-(4-hydroxy-phenoxy)-propylamino]-ethyl}-phenylamino)-piperidine-1-carboxylic acid 3-methoxy-benzylamide] | 7.39 | 0.8
19 | CS(=O)(=O)Nc1cc([C@@H](O)CNCCc2ccc(NC3CCN(C(=O)c4ccc(C(=O)O)cc4)CC3)cc2)ccc1O [Example 105, 4-[4-(4-{2-[(2R)-2-Hydroxy-2-(4-hydroxy-3-methanesulfonylamino-phenyl)-ethylamino]-ethyl}-phenylamino)-piperidine-1-carbonyl]-benzoic Acid] | 7.43 | 1
20 | CCCCCCCCNC(=O)N1CCC(C(=O)N2CCC(Nc3ccc(CCNC[C@H](O)COc4ccc(O)cc4)cc3)CC2)CC1 [Example 92, 4-[4-(4-{2-[(2S)-2-Hydroxy-3-(4-hydroxy-phenoxy)-propylamino]-ethyl}-phenylamino)-piperidine-1-carbonyl]-piperidine-1-carboxylic Acidoctylamide] | 8.00 | 0.92
21 | O=C(NCc1ccc(F)cc1)N1CCC(Oc2ccc(CCNC[C@H](O)COc3ccc(O)cc3)cc2)CC1 [Example 56, 4-(4-{2-[(2S)2-Hydroxy-3-(4-hydroxy-phenoxy)-propylamino]-ethyl}-phenoxy)-piperidine-1-carboxylic Acid 4-fluoro-benzylamide] | 7.28 | 0.84
22 | CCCCCCCCNC(=O)N1CCC(Nc2ccc(CCNC[C@H](O)COc3ccc(N)nc3)cc2)CC1 [Example 5, 4-(4-{2-[(2S)-3-(6-Amino-pyridin-3-yloxy)-2-hydroxy-propylamino]-ethyl}-phenylamino)-piperidine-1-carboxylic Acid Octylamide] | – | 0.68
23 | COc1c(C(=O)N2CCC(Nc3ccc(CCNC[C@H](O)COc4ccc(O)cc4)cc3)CC2)sc2ccccc12 [Example 97, [4-(4-{2-[(2S)-2-Hydroxy-3-(4-hydroxy-phenoxy)-propylamino]-ethyl}-phenylamino)-piperidin-1-yl]-(3-methoxy-benzo[b]thiophen-2-yl)-methanone] | 7.47 | 0.79
24 | O=C(NCc1ccc(F)cc1F)N1CCC(Nc2ccc(CCNC[C@H](O)COc3ccc(O)cc3)cc2)CC1 [Example 80, 4-(4-{2-[(2S)-2-Hydroxy-3-(4-hydroxy-phenoxy)-propylamino]-ethyl}-phenylamino)-piperidine-1-carboxylic acid 2,4-difluoro-benzylamide] | – | 0.84
25 | CCN(CC)C(=O)CCNC(=O)N1CCC(Nc2ccc(CCNC[C@H](O)COc3ccc(O)cc3)cc2)CC1 [Example 89, 4-(4-{2-[(2S)-2-Hydroxy-3-(4-hydroxy-phenoxy)-propylamino]-ethyl}-phenylamino)-piperidine-1-carboxylic Acid (2-diethylcarbamoyl-ethyl)-amide] | 7.03 | 0.83
26 | CCCCCCNC(=O)N1CCC(S(=O)(=O)c2ccc(CCNC[C@H](O)COc3ccc(O)cc3)cc2)CC1 [Example 44, 4-(4-{2-[(2S)-2-Hydroxy-3-(4-hydroxy-phenoxy)-propylamino]-ethyl}-benzenesulfonyl)-piperidine-1-carboxylic Acid Hexylamide] | 7.44 | 0.99
27 | CCOC(=O)c1ccc(N2CCC(Nc3ccc(CCNC[C@H](O)c4ccc(O)c(NS(C)(=O)=O)c4)cc3)CC2)cc1 [Example 120, 4-[4-(4-{2-[(2R)-2-Hydroxy-2-(4-hydroxy-3-methanesulfonylamino-phenyl)-ethylamino]-ethyl}-phenylamino)-piperidin-1-yl]-benzoic Acid Ethyl Ester] | 7.60 | 1.1
